Results published in US11324750B2, “Compositions and methods for the treatment of severe acute respiratory syndrome coronavirus 2 (SARS-CoV-2) infection” (Children's Hospital Medical Center, priority 2020, dated 2022).
“Also recorded” adds a separate entry of the source.

What was measured:
severe COVID-19 patients = experiment: Randomized controlled trial, clinical outcomes (seven-category ordinal scale, chest CT, mortality, lymphocyte recovery, supportive treatments); type: in vivo, human; conditions: for CT scan follow-up within 14 days: Improvement, %: P 0.07 vs control
Description: As of the effective date of this application, no therapeutics have yet been proven effective for the treatment of severe COVID-19 with cytokine storm. Ruxolitinib, a potent and selective oral inhibitor of Janus kinase (JAK) 1 and JAK2, was proposed by Applicant to be beneficial in the treatment of cytokine storm. Applicant conducted a prospective, multicenter, single-blind, randomized controlled trial involving participants diagnosed as severe COVID-19 patients. The enrolled patients were randomly separated into two groups with a 1:1 allocation by an independent statistician in blocks of 4 for all 3 sites. Study number and treatment allocation codes were provided in sequentially numbered opaque envelops. Intervention group is treated with ongoing oral intake 5 mg of ruxolitinib (Jakafi®, Novartis Pharma Stein AG, Switzerland) twice a day based on the standard-of-care (SoC); the control group is treated with placebo plus SoC. The primary endpoint was the incidence of serious adverse events occurring up to 28 days and the time to clinical improvement. The secondary endpoint is the overall mortality at D28. This trial is registered at www.chictr.org.cn as ChiCTR-OPN-2000029580.
A prospective, single-blind, randomized controlled trial was designed. Participants diagnosed as positive for COVID-19 were enrolled for screening in three hospitals including Tongji hospital and No. 1 hospital in Wuhan and the Third Xiangya hospital in Changsha, China. The original protocol included secondary randomization in a treatment group for infusion of mesenchymal stem cells if the patient's clinical response had deteriorated within seven days after first randomization. Because no deterioration had occurred in patients of the treatment group within seven days after first randomization and secondary randomization was unnecessary, the protocol was updated correspondingly. This study was approved by the Medical ethics committee of Tongji Hospital, Tongji Medical College, Huazhong University of Science and Technology, Wuhan, China, registered at www.chictr.org.cn as ChiCTR-OPN-2000029580.
Participants. All participants were required to meet the following inclusion criteria: (1) enrolled patients met the diagnostic criterial for COVID-19. The diagnosis and the illness severity of COVID-19 were defined according to the Chinese management guideline for COVID-19 (version 5.0)^28; (2) patients were eligible if they were 18 years or older and younger than 75 years. (3) only severe cases were enrolled. Exclusion criterial included: (1) patients with other malignant tumors in the course of treatment; (2) patients with severe cardiovascular and metabolic disease in unstable status, even if treated with drugs; (3) patients with mental or severe psychiatric disorder who are unable to understand or abide the study protocols; (4) patients needing orotracheal intubation or invasive ventilation; (5) patients who cannot guarantee to complete the scheduled treatment plan and follow-up; (6) women of child-bearing age having positive pregnancy test or still lactating; (7) patients having other active infections; (8) patients having any conditions deemed to potentially affect the safety of the study protocols. Written informed consent was obtained from all patients or the patients' legal representative if the patient was too unwell to provide the consent.
Randomization and masking. The enrolled patients were then randomly allocated into two groups with a 1:1 allocation ratio by an independent statistician using permuted blocks of 4 for all 3 sites. Patient unique identification number and treatment allocation codes were provided in sequentially numbered opaque envelops. Treating physicians were aware of group allocations while the enrolled participants, staff at trial sites, CT radiologists and laboratory personnel were masked to the trial group assignment.
Procedures. The first day of randomization was designated as D0. […]

SARS-CoV-2 [1] = experiment: Virus clearance time by RT-PCR on throat swab; type: in vivo; conditions: median (IQR); patients with positive RT-PCR on throat swab; P 0.85 (table), P=0.65
SARS-CoV-2 [2] = experiment: SARS-CoV-2 copies number in blood by one-step RT-ddPCR; type: in vivo
[3] = test system: SARS-CoV-2-specific IgM and IgG; experiment: SARS-CoV-2-specific IgM and IgG detection (CLIA); type: in vivo, human; conditions: vs control group
Description: SARS-CoV-2-specific IgM and IgG detection. The SARS-CoV-2-specific IgM and IgG were detected by paramagnetic particle chemiluminescent immunoassay (CLIA) using iFlash-SARS-CoV-2 IgM/IgG assay kit (SHENZHEN YHLO BIOTECH CO., LTD.) and iFlash Immunoassay Analyzer (SHENZHEN YHLO BIOTECH CO., LTD.)
Procedures. The first day of randomization was designated as D0. The second and the fourth day after randomization were designated D1 and D3, respectively. Dx referred to the day when either disease progressed according to the Chinese management guideline for COVID-19 (version 5.0) or defined as a one-category increase on the seven-category scale. Dend was the day before discharge. The enrolled patients were randomly separated into two groups: the treatment group (group B) received oral intake of ruxolitinib (Jakafi®, Novartis Pharma Stein AG, Switzerland) 5 mg twice a day plus standard-of-care (SoC); the control group (group A) is treated with placebo twice a day with SoC. […] Safety was monitored daily by two independent senior physicians from the trial center. […] The CT features of improvement were evaluated by two independent senior radiologists blindly, which should at least meet one of the following criteria: decreased presence of ground-glass opacities (GGO), decreased lung opacification, reduced density of consolidation or decreased pleural effusion with existence of fibrous stripes^29. […]

48 cytokines in serum = experiment: Serum cytokines, Bio-Plex Pro Human Cytokines 48-Plex Screening assay; conditions: in vivo

SMILES: N#CC[C@H](C1CCCC1)n1cc(-c2ncnc3[nH]ccc23)cn1 [Ruxolitinib, (3R)-3-cyclopentyl-3-[4-(7H-pyrrolo[2,3-d]pyrimidin-4-yl)pyrazol-1-yl]propanenitrile]
- CT scan follow-up within 14 days: Progression, % (severe COVID-19 patients; chest CT, N = 20): (5.0%)
- CT scan follow-up within 14 days: Stable, % (severe COVID-19 patients; chest CT, N = 20): (5.0%)
- CT scan follow-up within 14 days: Improvement, % (severe COVID-19 patients; chest CT, N = 20): (90.0%)
- CT scan follow-up within 14 days: Improvement, % (severe COVID-19 patients; chest CT, N = 20, listed as ruxolitinib): 90%
- Time from randomization to death (severe COVID-19 patients; median (IQR)): 0 days
- Time from randomization to discharge (severe COVID-19 patients; median (IQR), P 0.94 vs control): 17 days
- Time to lymphocyte recovery (severe COVID-19 patients; median (IQR), patients with lymphopenia, log-rank P 0.03 vs control): 5 days
- Time to clinical improvement (severe COVID-19 patients; median (IQR), primary efficacy endpoint, log-rank P 0.15 vs control): 12 days
- Clinical improvement Day 28, % (severe COVID-19 patients; seven-category ordinal scale, N = 20, P 0.23 vs control): (100.0%)
- Clinical improvement Day 14, % (severe COVID-19 patients; seven-category ordinal scale, N = 20, P 0.35 vs control): (60.0%)
- Clinical improvement Day 7, % (severe COVID-19 patients; seven-category ordinal scale, N = 20, P 0.41 vs control): (20.0%)
- Clinical improvement Day 21, % (severe COVID-19 patients; seven-category ordinal scale, N = 20, P 1.00 vs control): (90.0%)
- Virus clearance time (SARS-CoV-2 [1]): 13 days
- Blood viral RNA loads at D1 (SARS-CoV-2 [2]; mean (±SEM), baseline, P=0.57 vs control): 94±26 copies per milliliter
- Viral load at discharge (SARS-CoV-2 [2]; vs SoC alone, P=0.63): did not differ
- Peak IgG against SARS-CoV-2 [3]: no significant difference
- Peak level of anti-IgM of SARS-CoV-2 ([3]; P=0.039): profoundly higher
- Average fold-change of 48 cytokines (48 cytokines in serum): 0.466
- Average values of 48 cytokines (48 cytokines in serum): decreased significantly; also recorded: all average values of 48 cytokines decreased
- Level of MIP-1α (48 cytokines in serum): markedly decreased
- Level of interleukin-6 (IL-6) (48 cytokines in serum): markedly decreased
- Level of interleukin-12 (IL-12) (p40) (48 cytokines in serum): markedly decreased
- Level of macrophage inflammatory protein 1β (MIP-1β) (48 cytokines in serum): markedly decreased
- Level of macrophage migration inhibitory factor (MIF) (48 cytokines in serum): markedly decreased
- Level of nerve growth factor β (NGF-β) (48 cytokines in serum): markedly decreased
- Level of vascular endothelial growth factor (VEGF) (48 cytokines in serum): markedly decreased
